From PMC10066365, “Nemacol is a small molecule inhibitor of C. elegans vesicular acetylcholine transporter with anthelmintic potential” (Nature Communications, 2023)
Several values for one entry are separate records, joined by “and”; a condition that tells them apart may be missing. Identical values can stand only once.

Tested on: C. elegans
Test: C. elegans motor phenotype scoring on solid media (Punc/jerky-unc, coiled, paralyzed), wild-type young adults
Format: in vivo, Caenorhabditis elegans
Conditions: for atypical locomotion (number of animals) / no phene (number of animals) / paralyzed (number of animals) / any phene: mean % fraction of young adults exhibiting any phenotype (coiled, jerky-Unc or paralyzed) / coiled (number of animals): one hour; for atypical locomotion (number of animals) / no phene (number of animals) / paralyzed (number of animals) / coiled (number of animals): young adults, 20 animals per trial, single technical replicate; for any phene: mean % fraction of young adults exhibiting any phenotype (coiled, jerky-Unc or paralyzed): mean of three biological replicates; for Fraction Coiled / Fraction Jerky-Unc / Fraction No Phenotype / Fraction Parayzed: 60 min
[1] = 15 µM, N2 adult worms, Averages of 3 biological repeats
[2] = 15 µM, N2 adult worms, Bio Rep 1
[3] = 15 µM, N2 adult worms, Bio Rep 3
[4] = 15 µM, N2 adult worms, Bio rep 2
[5] = 30 µM, N2 adult worms, Averages of 3 biological repeats
[6] = 30 µM, N2 adult worms, Bio Rep 1
[7] = 30 µM, N2 adult worms, Bio Rep 3
[8] = 30 µM, N2 adult worms, Bio rep 2
[9] = 60 µM, N2 adult worms, Averages of 3 biological repeats
[10] = 60 µM, N2 adult worms, Bio Rep 1
[11] = 60 µM, N2 adult worms, Bio Rep 3
[12] = 60 µM, N2 adult worms, Bio rep 2
[13] = 120 µM, N2 adult worms, Averages of 3 biological repeats
[14] = 120 µM, N2 adult worms, Bio Rep 1
[15] = 120 µM, N2 adult worms, Bio Rep 3
[16] = 120 µM, N2 adult worms, Bio rep 2
[17] = 240 µM, N2 adult worms, Averages of 3 biological repeats
[18] = 240 µM, N2 adult worms, Bio Rep 1
[19] = 240 µM, N2 adult worms, Bio Rep 3
[20] = 240 µM, N2 adult worms, Bio rep 2
[21] = N2, 15 µM, adult worms, average of 3 biological repeats
[22] = N2, 30 µM, adult worms, average of 3 biological repeats
[23] = N2, 60 µM, adult worms, average of 3 biological repeats
[24] = N2, 120 µM, adult worms, average of 3 biological repeats
[25] = N2, 240 µM, adult worms, average of 3 biological repeats

O[C@@H]1CCCC[C@H]1N1CCC(c2ccccc2)CC1 (racemic) [vesamicol, reference compound]
atypical locomotion (number of animals) (3.75uM): 0 | no phene (number of animals) (3.75uM): 20 | paralyzed (number of animals) (3.75uM): 0 | any phene: mean % fraction of young adults exhibiting any phenotype (coiled, jerky-Unc or paralyzed) (3.75uM): 0% | Fraction Coiled [1]: 0.00 | Fraction Jerky-Unc [1]: 0.17 | Fraction No Phenotype [1]: 0.83 | Fraction Parayzed [1]: 0.00 | Fraction Jerky-Unc [2]: 0.2778 | Fraction No Phenotype [2]: 0.72 | Fraction Parayzed [2]: 0 | Fraction Coiled [3]: 0.00 | Fraction Jerky-Unc [3]: 0.1667 | Fraction No Phenotype [3]: 0.83 | Fraction Parayzed [3]: 0 | Fraction Coiled [4]: 0.00 | Fraction Jerky-Unc [4]: 0.05556 | Fraction No Phenotype [4]: 0.94 | Fraction Parayzed [4]: 0 | atypical locomotion (number of animals) (15uM): 0 | coiled (number of animals) (15uM): 0 | no phene (number of animals) (15uM): 20 | paralyzed (number of animals) (15uM): 0 | any phene: mean % fraction of young adults exhibiting any phenotype (coiled, jerky-Unc or paralyzed) (15uM): 0% | Fraction Coiled [5]: 0.00 | Fraction Jerky-Unc [5]: 0.41 | Fraction No Phenotype [5]: 0.59 | Fraction Parayzed [5]: 0.00 | Fraction Coiled [6]: 0.00 | Fraction Jerky-Unc [6]: 0.3889 | Fraction No Phenotype [6]: 0.61 | Fraction Parayzed [6]: 0 | Fraction Coiled [7]: 0.00 | Fraction Jerky-Unc [7]: 0.4444 | Fraction No Phenotype [7]: 0.56 | Fraction Parayzed [7]: 0 | Fraction Coiled [8]: 0.00 | Fraction Jerky-Unc [8]: 0.3889 | Fraction No Phenotype [8]: 0.61 | Fraction Parayzed [8]: 0 | Fraction Coiled [9]: 0.0566 | Fraction Jerky-Unc [9]: 0.62 | Fraction No Phenotype [9]: 0.32 | Fraction Parayzed [9]: 0.00 | Fraction Coiled [10]: 0.0556 | Fraction Jerky-Unc [10]: 0.7222 | Fraction No Phenotype [10]: 0.22 | Fraction Parayzed [10]: 0 | Fraction Coiled [11]: 0.06 | Fraction Jerky-Unc [11]: 0.5294 | Fraction No Phenotype [11]: 0.41 | Fraction Parayzed [11]: 0 | Fraction Coiled [12]: 0.0556 | Fraction Jerky-Unc [12]: 0.6111 | Fraction No Phenotype [12]: 0.33 | Fraction Parayzed [12]: 0 | atypical locomotion (number of animals) (60uM): 0 and 1 and 3 and 5 and 2 | coiled (number of animals) (60uM): 1 and 0 | no phene (number of animals) (60uM): 19 and 18 and 17 and 15 | paralyzed (number of animals) (60uM): 0 | any phene: mean % fraction of young adults exhibiting any phenotype (coiled, jerky-Unc or paralyzed) (60uM): 11.6667% | Fraction Coiled [13]: 0.0556 | Fraction Jerky-Unc [13]: 0.74 | Fraction No Phenotype [13]: 0.17 | Fraction Parayzed [13]: 0.037 | Fraction Coiled [14]: 0.11 | Fraction Jerky-Unc [14]: 0.7778 | Fraction No Phenotype [14]: 0.0556 | Fraction Parayzed [14]: 0.05556 | Fraction Coiled [15]: 0.00 | Fraction Jerky-Unc [15]: 0.7222 | Fraction No Phenotype [15]: 0.28 | Fraction Parayzed [15]: 0 | Fraction Coiled [16]: 0.0556 | Fraction Jerky-Unc [16]: 0.7222 | Fraction No Phenotype [16]: 0.17 | Fraction Parayzed [16]: 0.05556 | Fraction Coiled [17]: 0.11 | Fraction Jerky-Unc [17]: 0.80 | Fraction No Phenotype [17]: 0.0741 | Fraction Parayzed [17]: 0.0185 | Fraction Coiled [18]: 0.11 | Fraction Jerky-Unc [18]: 0.8333 | Fraction No Phenotype [18]: 0.00 | Fraction Parayzed [18]: 0.05556 | Fraction Coiled [19]: 0.11 | Fraction Jerky-Unc [19]: 0.7222 | Fraction No Phenotype [19]: 0.17 | Fraction Parayzed [19]: 0 | Fraction Coiled [20]: 0.11 | Fraction Jerky-Unc [20]: 0.8333 | Fraction No Phenotype [20]: 0.0556 | Fraction Parayzed [20]: 0 | EC50 (Caenorhabditis elegans, 1 h): 38.6 ± 3.5 µM | Fraction Coiled [21]: 0.00 | Fraction Jerky-Unc [21]: 0.17 | Fraction No Phenotype [21]: 0.83 | Fraction Parayzed [21]: 0.00 | Fraction Coiled [22]: 0.00 | Fraction Jerky-Unc [22]: 0.41 | Fraction No Phenotype [22]: 0.59 | Fraction Parayzed [22]: 0.00 | Fraction Coiled [23]: 0.0566 | Fraction Jerky-Unc [23]: 0.62 | Fraction No Phenotype [23]: 0.32 | Fraction Parayzed [23]: 0.00 | Fraction Coiled [24]: 0.0556 | Fraction Jerky-Unc [24]: 0.74 | Fraction No Phenotype [24]: 0.17 | Fraction Parayzed [24]: 0.037 | Fraction Coiled [25]: 0.11 | Fraction Jerky-Unc [25]: 0.80 | Fraction No Phenotype [25]: 0.0741 | Fraction Parayzed [25]: 0.0185 | fold difference in C. elegans EC50, Vesamicol vs Nemacol-1 (Vesamicol EC50 higher, Nemacol-1 more potent): 5.4 fold
